Experiments:
[1] = tested on: greenhouse red spider mite (Tetranychus urticae); assay: Tetranychus test, OP resistant (TETRUR spray treatment); type: in vivo; conditions: after 6 days
Description: Solvents: 78.0 parts by weight of acetone • • 1.5 parts by weight of dimethyl formamide Emulsifier: 0.5 part by weight of alkylaryl polyglycol ether To produce a suitable preparation of active compound, 1 part by weight of active compound is mixed with the stated amounts of solvent and emulsifier, and the concentrate is diluted with emulsifier-containing water to the desired concentration. Discs of bean leaves (Phaseolus vulgaris) which are infested by all stages of the greenhouse red spider mite (Tetranychus urticae) are sprayed with an active compound preparation of the desired concentration. After 6 days, the activity in % is determined. 100% means that all spider mites have been killed; 0% means that none of the spider mites has been killed. The test was carried out and evaluated as described in Example B.7.

[2] = logP by HPLC on reversed-phase columns (C 18), EU Guideline 79/831 Annex V.A8; type: physicochemical; conditions: ** LC-MS in the neutral range, pH 7.8, 0.001 molar aqueous ammonium bicarbonate and acetonitrile
[3] = tested on: larvae of the mustard beetle (Phaedon cochleariae); assay: Phaedon test (PHAECO spray treatment); type: in vivo; conditions: after 7 days
Description: (§1) Solvents: 78.0 parts by weight of acetone • • 1.5 parts by weight of dimethyl formamide Emulsifier: 0.5 part by weight of alkylaryl polyglycol ether To produce a suitable preparation of active compound, 1 part by weight of active compound is mixed with the stated amounts of solvent and emulsifier, and the concentrate is diluted with emulsifier-containing water to the desired concentration. Discs of Chinese cabbage leaves (Brassica pekinensis) are sprayed with an active compound preparation of the desired concentration and, after drying, populated with larvae of the mustard beetle (Phaedon cochleariae). After 7 days, the activity in % is determined. 100% means that all beetle larvae have been killed; 0% means that none of the beetle larvae have been killed. The test was carried out and evaluated as described in Example B.4.

[4] = tested on: caterpillars of the army worm (Spodoptera frugiperda); assay: Spodoptera frugiperda test (SPODFR spray treatment); type: in vivo; conditions: after 7 days
Description: as §1, with “maize” for “Chinese cabbage”, “(Zea mays)” for “(Brassica pekinensis)”, “caterpillars” for “larvae”, “army worm (Spodoptera frugiperda).” for “mustard beetle (Phaedon cochleariae).”, “caterpillars” for “beetle larvae”, “B.5.” for “B.4.”

adult Musca domestica = assay: Musca domestica test (MUSCDO); type: in vivo; conditions: treated sponge
Description: Solvent: Dimethyl sulphoxide To prepare a suitable preparation of active compound, 10 mg of active component are mixed with 0.5 ml of dimethyl sulphoxide, and the concentrate is diluted with water to the desired concentration. Vessels containing a sponge which had been treated with the active compound preparation of the desired concentration are populated with adult Musca domestica. After the desired period of time, the kill in % is determined. 100% means that all flies have been killed; 0% means that none of the flies have been killed.

Boophilus microplus = Boophilus microplus test (BOOPMI injection); type: in vivo; conditions: 20 μg/animal, injected into the abdomen, after 7 days
Description: Solvent: Dimethyl Sulphoxide To produce a suitable preparation of active compound, 10 mg of active compound are mixed with 0.5 ml of solvent, and the concentrate is diluted with water to the desired concentration. The active compound solution is injected into the abdomen (Boophilus microplus) and the animals are transferred into dishes and stored in a climatized room. The activity is monitored for deposition of fertile eggs. After 7 days, the activity in % is determined. 100% means that none of the ticks has laid fertile eggs.

Ctenocephalides felis = Ctenocephalides felis oral (CTECFE); type: in vivo; conditions: 100 ppm in citrated cattle blood, after 2 days
Description: Solvent: 1 part by weight of dimethyl sulphoxide To produce a suitable preparation of active compound, 10 mg of active compound are mixed with 0.5 ml of dimethyl sulphoxide. One part of the concentrate is diluted with citrated cattle blood, and the desired concentration is prepared. 20 unfed adult fleas (Ctenocephalides felis) are placed into a chamber whose top and bottom ends are closed with gauze. A metal cylinder whose bottom end is closed with parafilm is placed onto the chamber. The cylinder contains the blood/active compound preparation, which can be taken up by the fleas through the parafilm membrane. After 2 days, the kill in % is determined. 100% means that all fleas have been killed; 0% means that none of the fleas have been killed.

Lucilia cuprina larvae = assay: Lucilia cuprina test (LUCICU); type: in vivo; conditions: 100 ppm, treated horse meat, after 2 days
Description: Solvent: Dimethyl Sulphoxide To produce a suitable preparation of active compound, 10 mg of active compound are mixed with 0.5 ml of dimethyl sulphoxide, and the concentrate is diluted with water to the desired concentration. Containers containing horse meat treated with the active compound preparation of the desired concentration are populated with Lucilia cuprina larvae. After 2 days, the kill in % is determined. 100% means that all larvae have been killed; 0% means that none of the larvae have been killed.

[5] = tested on: Boophilus microplus strain Parkhurst (SP-resistant); assay: Boophilus microplus test (DIP); type: in vivo; conditions: 100 ppm
Description: Test animals: adult fed females of the Boophilus microplus strain Parkhurst (SP-resistant)
Solvent: Dimethyl sulphoxide
10 mg of active compound are dissolved in 0.5 ml of dimethyl sulphoxide. To produce a suitable formulation, the active compound solution is diluted with water to the particular desired concentration. This active compound preparation is pipetted into tubes. 8-10 ticks are transferred into a further tube provided with holes. The tube is dipped into the active compound preparation, with all ticks being wetted completely. After the liquid has run off, the ticks are transferred to filter discs in plastic dishes and kept in a climatized room. After the desired period of time, the activity is checked for deposition of fertile eggs. Eggs whose fertility is not visible from the outside are kept in glass tubes in a climatized cupboard under the larvae have hatched. An activity of 100% means that no tick has laid fertile eggs.

COc1cc(C=Nc2c(-c3cc(Cl)cc(C(F)(F)F)c3)c(C(F)(F)F)nn2-c2ncccn2)ccc1O [Example 1-10]
activity (spider mites killed) ([1]; 100 g/ha): 100% | logP [2]: 4.05** | activity (beetle larvae killed) ([3]; 100 g/ha): 100% | activity (caterpillars killed) ([4]; 100 g/ha): 100%

FC(F)(F)c1cc(Cl)cc(-c2c(C(F)(F)F)nn(-c3ncccn3)c2N=Cc2ccccc2)c1 [Example 1-12]
kill (adult Musca domestica; 20 ppm): 100% | activity (spider mites killed) ([1]; 100 g/ha): 100% | activity (no deposition of fertile eggs) (Boophilus microplus): 100% | logP [2]: 4.92** | activity (beetle larvae killed) ([3]; 4 g/ha): 100% | activity (beetle larvae killed) ([3]; 100 g/ha): 100% | kill (Ctenocephalides felis): 100% | activity (caterpillars killed) ([4]; 20 g/ha): 100% | activity (caterpillars killed) ([4]; 100 g/ha): 100% | kill (Lucilia cuprina larvae): 100%

COc1ccc(C=Nc2c(-c3cc(Cl)cc(C(F)(F)F)c3)c(C(F)(F)F)nn2-c2ncccn2)cc1 [Example 1-17]
kill (adult Musca domestica; 20 ppm): 100% | activity (spider mites killed) ([1]; 100 g/ha): 100% | activity (no deposition of fertile eggs) (Boophilus microplus): 100% | logP [2]: 4.98** | activity (beetle larvae killed) ([3]; 100 g/ha): 100% | kill (Ctenocephalides felis): 100% | activity (caterpillars killed) ([4]; 100 g/ha): 100% | kill (Lucilia cuprina larvae): 100%

COc1ccc(C=Nc2c(-c3cc(Cl)cc(C(F)(F)F)c3)c(C(F)(F)C(F)F)nn2-c2ncccn2)cc1 [Example 1-21]
kill (adult Musca domestica; 100 ppm): 100% | activity (spider mites killed) ([1]; 100 g/ha): 90% | activity (no deposition of fertile eggs) (Boophilus microplus): 100% | logP [2]: 3.69** | activity (beetle larvae killed) ([3]; 100 g/ha): 100% | kill (Ctenocephalides felis): 100% | activity (caterpillars killed) ([4]; 100 g/ha): 100% | kill (Lucilia cuprina larvae): 100%

FC(F)C(F)(F)c1nn(-c2ncccn2)c(N=Cc2ccccc2)c1-c1cc(Cl)c2c(c1)OCO2 [Example 1-24]
kill (adult Musca domestica; 100 ppm): 80% | activity (no deposition of fertile eggs) (Boophilus microplus): 100% | logP [2]: 3.9** | activity (beetle larvae killed) ([3]; 100 g/ha): 100% | kill (Ctenocephalides felis): 100% | activity (caterpillars killed) ([4]; 100 g/ha): 100% | activity (no deposition of fertile eggs) [5]: 100% | kill (Lucilia cuprina larvae): 100%

FC(F)(F)c1nn(-c2ncccn2)c(N=Cc2ccc(Cl)cc2)c1-c1cc(Cl)c2c(c1)OCO2 [Example 1-25]
kill (adult Musca domestica; 20 ppm): 100% | activity (no deposition of fertile eggs) (Boophilus microplus): 100% | logP [2]: 4.51** | activity (beetle larvae killed) ([3]; 100 g/ha): 100% | kill (Ctenocephalides felis): 100% | activity (caterpillars killed) ([4]; 100 g/ha): 100% | activity (no deposition of fertile eggs) [5]: 100% | kill (Lucilia cuprina larvae): 100%

COc1cc(C=Nc2c(-c3cc(Cl)c4c(c3)OCO4)c(C(F)(F)F)nn2-c2ncccn2)cc(OC)c1OC [Example 1-27]
kill (adult Musca domestica; 100 ppm): 80% | activity (no deposition of fertile eggs) (Boophilus microplus): 100% | logP [2]: 3.82** | activity (beetle larvae killed) ([3]; 100 g/ha): 100% | kill (Ctenocephalides felis): 100% | activity (no deposition of fertile eggs) [5]: 100% | kill (Lucilia cuprina larvae): 100%

CC(C)OC=Nc1c(-c2cc(Cl)cc(C(F)(F)F)c2)c(C(F)(F)C(F)(F)F)nn1-c1ncccn1 [Example 1-44]
activity (spider mites killed) ([1]; 100 g/ha): 100% | logP [2]: 5.31** | activity (beetle larvae killed) ([3]; 100 g/ha): 100% | activity (caterpillars killed) ([4]; 100 g/ha): 100%

COc1nccnc1-n1nc(C(F)(F)C(F)F)c(-c2cc(Cl)cc(C(F)(F)F)c2)c1N=Cc1ccccc1 [Example 2-11]
kill (adult Musca domestica; 100 ppm): 90% | activity (no deposition of fertile eggs) (Boophilus microplus): 100% | logP [2]: 5.37** | kill (Ctenocephalides felis): 90% | activity (no deposition of fertile eggs) [5]: 90% | kill (Lucilia cuprina larvae): 100%

COc1nccnc1-n1nc(C(F)(F)C(F)F)c(-c2cc(Cl)c3c(c2)OCO3)c1N=Cc1ccccc1 [Example 2-13]
kill (adult Musca domestica; 100 ppm): 80% | activity (no deposition of fertile eggs) (Boophilus microplus): 100% | logP [2]: 4.48** | kill (Ctenocephalides felis): 100% | activity (no deposition of fertile eggs) [5]: 100% | kill (Lucilia cuprina larvae): 100%

COc1nccnc1-n1nc(C(F)(F)F)c(-c2cc(Cl)c3c(c2)OCO3)c1N=Cc1ccc(Cl)cc1 [Example 2-14]
kill (adult Musca domestica; 100 ppm): 90% | activity (no deposition of fertile eggs) (Boophilus microplus): 100% | logP [2]: 5.1** | kill (Ctenocephalides felis): 100% | activity (no deposition of fertile eggs) [5]: 100% | kill (Lucilia cuprina larvae): 100%

COc1nccnc1-n1nc(C(F)(F)C(F)F)c(-c2cc(Cl)cc(C(F)(F)F)c2)c1N=COC(C)C [Example 2-20]
kill (adult Musca domestica; 100 ppm): 80% | activity (spider mites killed) ([1]; 100 g/ha): 100% | activity (no deposition of fertile eggs) (Boophilus microplus): 100% | logP [2]: 5.1** | kill (Lucilia cuprina larvae): 100%

FC(F)(F)c1nn(-c2ncccn2)c(NCc2ccccc2)c1-c1cc(Cl)c2c(c1)OCO2 [compound (XXI), reference compound]
activity (spider mites killed) ([1]; 20 g/ha): 0% | activity (caterpillars killed) ([4]; 20 g/ha): 0%

COc1ccc(CNc2c(-c3cc(Cl)cc(C(F)(F)F)c3)c(C(F)(F)F)nn2-c2ncccn2)cc1 [compound (XXII), reference compound]
activity (spider mites killed) ([1]; 100 g/ha): no activity | activity (beetle larvae killed) ([3]; 100 g/ha): no activity | activity (caterpillars killed) ([4]; 100 g/ha): no activity
